In US20110195951A1, “DIAZAINDOLE DERIVATIVES AND THEIR USE IN THE INHIBITION OF C-JUN N-TERMINAL KINASE” (EISAI R&D MANAGEMENT CO., LTD., priority 2008, published 2011):

Target: JNK3 (Homo sapiens, UniProt P53779)
Assay: JNK3 SPA assay (phosphorylation of GST-c-Jun)
Type: biochemical
Conditions: 3.33 μM ATP, GST-c-Jun substrate, 30 minutes at room temperature, read-out: IC50 values for compounds (I) against JNK3
Protocol: JNK1, JNK2, JNK3—SPA Assay
• 1. The compound was dissolved in DMSO to a convenient concentration and this was diluted in 10% DMSO to a five times concentrate of the desired starting concentration (frequently 1:100). • 2. 10 μl of 500 mM EDTA was added to alternative wells of the Opti-plate row, which would receive kinase reaction plus DMSO. This created the negative control. • 3. For the JNK2 and JNK3 assay, compounds were prepared in six 2-fold dilutions with water and each concentration is tested in duplicate. For the JNK1 assay compounds are prepared in four 5-fold dilutions with water which are tested in triplicate. Controls were treated identically. • 4. […] per well of each compound concentration was transferred to an Opti-plate, in duplicate. • 5. 30 μl (JNK2/3 SPA) or 50 μl (JNK1 SPA) of substrate solution (25 mM HEPES pH 7.5, 10 mM magnesium acetate with 3.33 μM ATP (JNK2/3) or 2 μM ATP (JNK1), approximately 7.5 kBq [γ-^33P] ATP, GST-c-Jun, in water) was added to each well. • 6. 50 μl (JNK2/3 SPA) or 30 μl (JNK1 SPA) of kinase solution (JNK in 25 mM HEPES pH 7.5, 10 mM Mg Acetate) was added to each well.
• 7. The plate was incubated for 30 minutes at room temperature. • 8. 100 μl of bead/stop solution was added to each well (5 mg/ml glutathione-PVT-SPA beads, 40 mM ATP in PBS). • 9. Plates were sealed and incubated for 30 minutes at room temperature, centrifuged for 10 minutes at 2500 g and counted. • 10. The IC50 values were calculated as the concentration of the compound being tested at which the phosphorylation of c-Jun was decreased to 50% of the control value.

Sequence of JNK3 (P53779 whole entry, species assumed): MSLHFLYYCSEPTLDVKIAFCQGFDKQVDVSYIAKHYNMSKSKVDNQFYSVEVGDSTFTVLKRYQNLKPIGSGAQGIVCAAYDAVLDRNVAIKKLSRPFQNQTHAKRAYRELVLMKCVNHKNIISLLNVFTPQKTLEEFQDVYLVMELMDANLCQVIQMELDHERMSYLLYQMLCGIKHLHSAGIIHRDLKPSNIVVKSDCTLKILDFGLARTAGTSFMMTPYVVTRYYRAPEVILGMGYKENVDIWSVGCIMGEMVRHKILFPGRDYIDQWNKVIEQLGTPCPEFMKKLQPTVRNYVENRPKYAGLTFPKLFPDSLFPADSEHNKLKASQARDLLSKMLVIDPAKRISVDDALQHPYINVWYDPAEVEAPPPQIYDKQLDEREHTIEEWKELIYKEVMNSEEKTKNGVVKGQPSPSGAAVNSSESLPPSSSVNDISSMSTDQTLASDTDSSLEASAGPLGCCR

SMILES	IC50
Cn1cc(-c2n[nH]c3ncc(C4CCCCC4)cc23)cn1 [Example 1, 5-cyclohexyl-3-(1-methyl-1H-pyrazol-4-yl)-1H-pyrazolo[3,4-b]pyridine]	1700 nM
Cn1cc(-c2n[nH]c3ncc([C@H]4CC[C@H](N5CCCOCC5)CC4)cc23)cn1 [Example 2, 4-((1r,4r)-4-(3-(1-methyl-1H-pyrazol-4-yl)-1H-pyrazolo[3,4-b]pyridin-5-yl)cyclohexyl)-1,4-oxazepane]	> 2000 nM
Cn1cc(-c2n[nH]c3ncc([C@H]4CC[C@@H](N5CCCOCC5)CC4)cc23)cn1 [Example 3, 4-((1s,4s)-4-(3-(1-methyl-1H-pyrazol-4-yl)-1H-pyrazolo[3,4-b]pyridin-5-yl)cyclohexyl)-1,4-oxazepane]	> 2000 nM
Cn1cc(-c2c[nH]c3ncc(C4CCCCC4)nc23)cn1 [Example 4, 2-cyclohexyl-7-(1-methyl-1H-pyrazol-4-yl)-5H-pyrrolo[3,2-b]pyrazine]	178 nM
